From patent US20240238259A1, “COMBINATION THERAPY FOR PULMONARY HYPERTENSION” (VIVUS LLC, priority 2015, published 2024)
Where two headings read alike, the source gives them in different places.

Key:
PAH patients = conditions: for symptoms and exercise capacity: within 1 month of initiation, ambrisentan
[1] = test system: BMPR2 signaling (BRE from the Id1 promoter linked to luciferase, C2C12 mouse myoblastoma reporter cells); assay: BRE-Luc reporter high throughput screen for compounds that increase BMPR2 signaling; format: cell-based; conditions: screen of library of >3,600 compounds
Protocol: A C2C12 mouse myoblastoma reporter cells line where the BRE (BMP Response Element) from the Id1 promoter (a main downstream target of BMP signaling) was linked to luciferase (BRE-Luc) was used to identify compounds that increase BMPR2 signaling. Thus, activation of the BMP pathway was measured by luminescence. A high throughput screen of a library containing greater than 3,600 compounds was used.

patients with PAH = assay: Phase IIA randomized, double-blind, placebo-controlled clinical trial of tacrolimus in PAH (NCT01647945); format: in vivo, human
Protocol: Tacrolimus was selected as the agent for increasing BMPR2 signaling. A phase IIA trial to assess the safety and tolerability of different doses tacrolimus (goal blood level <2 ng/ml, 2-3 ng/ml, 3-5 ng/ml) vs Placebo was conducted (Clinical Trials Identifier: NCT01647945). The secondary endpoints were change in clinical worsening, change in 6-min walk distance, NT-pro BNP, Uric Acid, and novel echo parameters. The phase IIA trial was a single center trial with 23 patients. This study was open to male or female subjects, 18-70 years of age, with pulmonary hypertension. The Inclusion and Exclusion criteria used are below:
• 1. Age ≥18 and <70 years • 2. Diagnosis of WHO Group I Pulmonary Arterial Hypertension (PAH) (Idiopathic (I)PAH, Heritable PAH (including Hereditary Hemorrhagic Telangiectasia), Associated (A)PAH (including collagen vascular disorders, drugs+toxins exposure, congenital heart disease, and portopulmonary disease). • 3. Stable on active PAH treatment including any prostacycline or phosphodiesterase inhibitors and the endothelin antagonist Ambrisentan alone or in combination (stability defined as: <10% change in 6 MWD, no change in NYHA class, no hospitalization or addition of PAH therapy for at least 3 months). • 4. Previous Right Heart Catheterization (RHC) that documented: • a. Mean PAP ≥25 mmHg. • b. Pulmonary capillary wedge pressure <15 mmHg. • c. Pulmonary Vascular Resistance ≥3.0 Wood units or 240 dynes/see/cm5 • 5. All NYHA/WHO functional classes. • 6. Willingness of female subjects to use birth control, or be post-menopausal, or status post hysterectomy.
• 1. WHO Group II-V Pulmonary Hypertension. • 2. Current or prior experimental PAH treatments within the last 6 months (including but not limited to tyrosine kinase inhibitors, rho-kinase inhibitors, or cGMP modulators). • 3. Current active treatment with the dual endothelin receptor antagonist bosentan. • 4. Total lung Capacity (TLC)<60% predicted; if TLC b/w 60 and 70% predicted, high resolution computed tomography must be available to exclude significant interstitial lung disease. • 5. Forced expiratory volume (FEV1)/Forced Vital Capacity (FVC)<70% predicted and FEV1<60% predicted • 6. Significant left-sided heart disease (based on screening Echocardiogram): • a. Significant aortic or mitral valve disease • b. Diastolic dysfunction≥Grade II • c. Left Ventricle (LV) systolic function <45% • d. Pericardial constriction • e. Restrictive cardiomyopathy • f. Significant coronary disease with demonstrable ischemia. • 7. Chronic renal insufficiency defined as an estimated creatinine clearance <30 ml/min (by Modification of diet in renal disease (MDRD) equation). • 8. Current atrial arrhythmias not under optimal control. • 9. Uncontrolled systemic hypertension: SBP>160 mm or DBP>100 mm • 10. […]

[2] = all three patients, first 3-6 months
[3] = patient #1, after 3 months of treatment
[4] = patient #1, baseline, 3 and 6 months
[5] = patient #2, 12 months follow-up
[6] = patient #2, baseline, 3 and 6 months
[7] = patient #2, within 3 months of treatment

C=CC[C@@H]1/C=C(\C)C[C@H](C)C[C@H](OC)[C@H]2O[C@@](O)(C(=O)C(=O)N3CCCC[C@H]3C(=O)O[C@H](/C(C)=C/[C@@H]3CC[C@@H](O)[C@H](OC)C3)[C@H](C)[C@@H](O)CC1=O)[C@H](C)C[C@@H]2OC [Tacrolimus, tacrolimus] was tested, and the REVEAL risk score (PAH patients; all 3 patients) was “improved”, the “hospital admission for worsening of heart failure” value (PAH patients; all three patients, during treatment) was “None of the patients was admitted” and the “6 MWD” value (PAH patients; [2]) was “increase”. For the same molecule, the “NT-pro BNP” value (PAH patients; [2]) was “decrease”, the tolerability (PAH patients; human, in vivo) was “tolerated low-dose tacrolimus very well” and the infections (PAH patients; human, in vivo, iv) was “did not report an increase of infections”. The “symptoms and exercise capacity” value (PAH patients; patient #1 (IPAH), trough goal 1.5-2.5 ng/mL, on epoprostenol, sildenafil) was “substantial improvement”, the PAH associated hospitalizations (PAH patients; patient #1, 12 months after initiation (3 in the 12 months prior)) was “free of any PAH associated hospitalizations” and the NT-proBNP (PAH patients; [3]) was 678 pg/mL. For the same molecule, the NYHA class symptoms (PAH patients; [3]) was “NYHA Class I”, the “improvement in 6 MWD” value (PAH patients; [3]) was “approximately 100 meters” and the “lowering of NT-proBNP” value (PAH patients; [3]) was over 50%. The “RV ejection fraction (RVEF), cMRI” value (PAH patients; [4]) was “stable”, the “RV end-diastolic volume index (RVEDVi), cMRI” value (PAH patients; [4]) was “stable” and the “RV stroke volume index (RVSVi), cMRI” value (PAH patients; [4]) was “increased”. For the same molecule, the “cardiac index (CI), cMRI” value (PAH patients; [4]) was “increased”, the REVEAL risk score (PAH patients; patient #1, on treatment (11 at transplant listing)) was 3 and the “lung transplant list status” value (PAH patients; patient #1, within 2 months) was “placed on a status 7 (hold) for transplantation”. For the same molecule, the “symptoms and exercise capacity” value (PAH patients; patient #2 (systemic sclerosis associated PAH), on treprostinil, sildenafil, dopamine) was “some improvement”, the PAH related hospitalizations (PAH patients; patient #2, 12 months after initiation (4 in the 15 months prior)) was “free from any PAH related hospitalizations” and the CO (PAH patients; [5]) was 3.4 L/min. For the same molecule, the “NT-pro BNP” value (PAH patients; [5]) was 1,895 pg/mL, the “NT-pro BNP reduction compared to baseline” value (PAH patients; [5]) was 30% and the NYHA symptoms (PAH patients; [5]) was “stable NYHA III symptoms”. The PAWP (PAH patients; [5]) was 10 mmHg, the PVR (PAH patients; [5]) was 14.1 WU and the SVO2 (PAH patients; [5]) was 59%. For the same molecule, the “increase in 6 MWD” value (PAH patients; [5]) was 94 meter, the mPAP (PAH patients; [5]) was 58 mmHg and the mRAP (PAH patients; [5]) was 7 mmHg. For the same molecule, the “CI, cMRI” value (PAH patients; [6]) was “improvement”, the “RVEDVi, cMRI” value (PAH patients; [6]) was “stable” and the “RVEF, cMRI” value (PAH patients; [6]) was “substantial improvement”. For the same molecule, the “RVSVi, cMRI” value (PAH patients; [6]) was “improvement”, the REVEAL risk score (PAH patients; patient #2, on treatment (from 12)) was 11 and the “NT-pro BNP” value (PAH patients; patient #2, within 1 month (from 2,669)) was 1,895 pg/mL. The “6 MWD improved by” value (PAH patients; [7]) was 18 meters, the “NT-pro BNP” value (PAH patients; [7]) was 1,580 pg/mL and the NYHA symptoms (PAH patients; [7]) was “stable NYHA III symptoms”. The symptoms (PAH patients; patient #3 (drugs and toxins associated PAH), over a 5-months period, on treprostinil, sildenafil) was “symptomatic improvement”, the “BMPR2 signaling (activation of the BMP pathway measured by luminescence)” value [1] was “increased BMPR2 signaling” and the “BMPR2 signaling (biomarker data)” value (patients with PAH; PAH patients) was “increase in BMPR2 signaling”. The “drug-related serious adverse events” value (patients with PAH; all tested doses) was “no drug-related serious adverse events”, the “incidences of hypertension or cardiovascular events” value (patients with PAH; all tested doses) was “no incidences of hypertension or cardiovascular events” and the tolerability (patients with PAH; all tested doses (goal blood level <2, 2-3, 3-5 ng/ml)) was “well tolerated”.
